According to paper PMC3365829 (ACS medicinal chemistry letters, 2012):

Assay: In vivo pharmacokinetics in mice
Details: mouse, iv, 3 mg/kg

Q: Which clearance does the source give for `CCCCNc1ncc2c(-c3ccc(F)cc3)nn(C[C@H]3CC[C@H](N)CC3)c2n1` [Compound 43] here?
A: 19.5 mL/min/kg
